Results published in paper PMC12475274, “Harnessing indole scaffolds to identify small-molecule IRE1α inhibitors modulating XBP1 mRNA splicing” (Nature Communications, 2025).
Where “and” joins values, the source holds several entries; their conditions need not be identical. Equal values may be shown once. Read-outs that look alike come from different tables or passages of the source. Blank lines part the entries; values can stand above or below the compound they belong to.

Key:
[1] = target: T1, dephosphorylated IRE1α (547–977) (Homo sapiens, UniProt O75460); assay: FRET-based IRE1α RNase activity assay, dephosphorylated IRE1α; assay type: biochemical
T1 construct: Human IRE1α kinase and RNase domain (residues 547–977) was subcloned into pLIB plasmid; His tag (with TEV cleavage site) (N, cleaved yes); made in house; host or cells: Sf9 insect cells, baculovirus (Bac-to-Bac)
Procedure, shortened: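 Dephosphorylated human IRE1α (residues 547–977, Sf9-expressed, λ-phosphatase treated), 40 nM, preincubated 30 min with compound at room temperature, then 100 nM FAM/BHQ1 XBP1 RNA added in HEPES pH 7.5 buffer. Fluorescence (485/535 nm) read kinetically for 1 h; inhibition from linear-phase slopes versus DMSO, fitted to IC50.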

p-IRE1α = target: T2, p-IRE1α (Homo sapiens, UniProt O75460); assay: Differential scanning fluorimetry (DSF), p-IRE1α; assay type: binding; settings: for p-IRE1a ∆Tm(°C): individual replicate values; for p-IRE1a ∆Tm: DSF, individual measurements
T2 construct: Human IRE1α kinase and RNase domain (residues 547–977) was subcloned into pLIB plasmid; His tag (with TEV cleavage site) (N, cleaved yes); made in house; host or cells: Sf9 insect cells, baculovirus (Bac-to-Bac)
Method: The DSF assay was performed in PBS buffer containing 2 mM DTT, in a total reaction volume of 20 µl with indicated compounds (final 1% DMSO) and the final concentration of 1 µM IRE1α protein and 5× SYPRO Orange fluorescent dye (5000× in DMSO, Sigma S5692). The melting curve was measured at a temperature range from 25 °C to 95 °C and in increments of 1 °C for 30 s using a Bio-Rad CFX96 Real-Time PCR detection system with the FRET scan mode. The melting temperature (Tm) was obtained by fitting the melting curve to Boltzmann sigmoidal in GraphPad Prism and the thermal shift (∆Tm) was calculated by using the equation: ∆Tm = Tm(compound) -Tm(DMSO).

dephosphorylated IRE1α = target: T3, dephosphorylated IRE1α (Homo sapiens, UniProt O75460); assay: Isothermal titration calorimetry (ITC), incl. competitive ITC; assay type: binding; settings: for KD (competitive ITC): ND, not detectable
T3 construct: Human IRE1α kinase and RNase domain (residues 547–977) was subcloned into pLIB plasmid; His tag (with TEV cleavage site) (N, cleaved yes); made in house; host or cells: Sf9 insect cells, baculovirus (Bac-to-Bac)
Method: The dephosphorylated IRE1α protein was used directly after purification, ITC experiments were carried out at 25 °C using MicroCal PEAQ-ITC system (Malvern) in buffer 25 mM HEPES pH 7.5, 250 mM NaCl, 1 mM TCEP, 5% glycerol, 1% DMSO. The solution was diluted to a final 1% DMSO in the same buffer as for the protein. Protein and compound solution were degassed before loading to the cell and syringe respectively. Unless otherwise noted, 200 μM of compound was loaded into the syringe and 10 μM of IRE1α protein was loaded into the sample cell. For competitive ITC, the protein was incubated with the indicated compound at 25 °C (final 1% DMSO) before loading to the cell. Instrument settings were: reference power 10 μcal/s, feedback high, stir speed 750 rpm, initial delays 60 s, injection spacing 150 s, injection duration 4 s. All experiments were performed with a single 0.4 μL injection followed by 18 (or 15), 2 μL injections. Data were analyzed using MicroCal PEAQ-ITC analysis software. The one set of sites fitting model is used for the calorimetry data analysis, with cell concentration and syringe concentration as the input parameters. For compound IA01, the N was set to 1 to improve the fit.

[2] = FRET assay, RNase activity, mean (± SEM), read-out: IRE1α IC50
[3] = IRE1a, IA34 0.000282 μM, Supplementary Fig. 3b, replicate values
[4] = IRE1a, IA34 1.85185 μM, Supplementary Fig. 3b, replicate values
[5] = FRET assay at 50 μM, source data, 50 µM
[6] = FRET assay, source data, unit from Fig. 3 / sheet Fig. 2b, read-out: IRE1a IC50, individual replicates (n1-n4)
[7] = titrating 200 μM compound into 10 μM IRE1α, no competitor (DMSO), read-out: KD (ITC)
[8] = 200 μM compound into 10 μM IRE1α, no competitor

T2 sequence (O75460 547-977): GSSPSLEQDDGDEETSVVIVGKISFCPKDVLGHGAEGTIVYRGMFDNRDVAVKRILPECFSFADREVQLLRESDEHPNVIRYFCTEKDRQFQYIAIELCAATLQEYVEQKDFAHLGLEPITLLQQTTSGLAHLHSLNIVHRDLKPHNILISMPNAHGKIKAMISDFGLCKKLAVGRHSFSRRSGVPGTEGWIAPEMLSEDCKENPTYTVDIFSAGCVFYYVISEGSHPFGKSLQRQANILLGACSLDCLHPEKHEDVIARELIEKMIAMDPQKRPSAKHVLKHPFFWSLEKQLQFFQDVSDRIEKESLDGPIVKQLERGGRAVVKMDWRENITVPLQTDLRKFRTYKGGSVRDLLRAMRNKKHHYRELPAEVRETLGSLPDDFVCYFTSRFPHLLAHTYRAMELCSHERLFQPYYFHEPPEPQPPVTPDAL
T1 sequence (O75460 547-977): as above
T3 sequence (O75460 547-977): as above

SMILES: Cc1c(CCC(=O)O)c2cc(Br)ccc2n1C(=O)c1ccccc1 [IA107]
increase in potency (IRE1α) ([1]; FRET IC50, reference compound not named): 20 fold | IRE1a inhibition(%), individual measurements ([1]; FRET assay at 16.6667 μM, source data, 16.6667 µM): 96.2448% and 97.4358% and 96.6561% and 93.7071% and 93.3922% and 93.79% and 97.6814% | inhibition at 16.6667 µM ([1]; FRET assay at 16.6667 μM, source data, read-out: IRE1a inhibition(%), individual measurements): 92.4% | IRE1a inhibition(%), individual measurements [1, 5]: 89.203% and 96.8587% and 95.5081% and 91.4695% and 84.6077% and 86.1159% and 92.8068% | inhibition at 50 µM ([1]; FRET assay at 50 μM, source data, read-out: IRE1a inhibition(%), individual measurements): 91.3% | IC50 [1, 2]: 0.016 µM and 0.0156 µM | IC50 [1, 6]: 0.0155 µM and 0.017 µM and 0.0142 µM | stabilization of p-IRE1α in DSF (p-IRE1α): stabilized phosphorylated IREα concentration-dependently | p-IRE1a ∆Tm (p-IRE1α; compound 25 μM): 1.94 °C and 2.53 °C and 2.1 °C and 2.61 °C | p-IRE1a ∆Tm (p-IRE1α; compound 50 μM): 3.27 °C and 3.18 °C and 2.63 °C and 3 °C | p-IRE1a ∆Tm (p-IRE1α; compound 100 μM): 3.1 °C and 3.74 °C and 2.72 °C and 2.61 °C | Kd (dephosphorylated IRE1α; IA107 to IRE1α with 5 μM G1749, read-out: KD (competitive ITC)): 2.25 µM | KD (competitive ITC) (dephosphorylated IRE1α; IA107 to IRE1α with 50 μM G1749): did not show detectable binding | KD (competitive ITC) (dephosphorylated IRE1α; IA107 to IRE1α with 200 μM G1749): did not show detectable binding | Kd (dephosphorylated IRE1α; [7]): 0.94 µM | Kd (dephosphorylated IRE1α; titrating 200 μM compound to 20 μM dephosphorylated IRE1α, read-out: KD (ITC)): 1.41 µM

SMILES: COc1ccc2c(c1)c(CCC(=O)O)c(C)n2C(=O)c1ccc(Cl)cc1 [IA01]
IRE1a inhibition(%), individual measurements ([1]; FRET assay at 10 μM, source data, 10 µM): 86.3319% | inhibition at 10 µM ([1]; FRET assay at 10 μM, source data, read-out: IRE1a inhibition(%), individual measurements): 85.9% | inhibition at 50 µM ([1]; FRET assay at 50 μM, mean (± SEM), read-out: IRE1α inhibition%): 97.1% | IRE1a inhibition(%), individual measurements [1, 5]: 92.8762% and 91.6346% and 94.1417% and 92.7378% and 93.1088% and 89.7986% and 113.165% and 103.517% and 100.196% and 112.293% and 71.6431% and 81.6993% | IC50 [1, 2]: 0.3 µM | IC50 [1, 6]: 0.286 µM and 0.204 µM and 0.4 µM | stabilization of p-IRE1α in DSF (p-IRE1α): concentration-dependently stabilized | p-IRE1a ∆Tm (p-IRE1α; compound 25 μM): 0.52 °C and 0.47 °C | p-IRE1a ∆Tm (p-IRE1α; compound 50 μM): 0.91 °C and 1.02 °C | -TΔS (ITC) (dephosphorylated IRE1α; [8]): -2.14 kcal/mol | N(sites) (ITC) (dephosphorylated IRE1α; [8]): 1 | ΔG (ITC) (dephosphorylated IRE1α; [8]): -7.62 kcal/mol | ΔH (ITC) (dephosphorylated IRE1α; [8]): -5.48 ± 2.28 kcal/mol

The next lines start with results.

IRE1α IC50 ([1]; FRET assay, RNase activity, mean (± SEM)): IC₅₀ not reached | IC50 [1, 2]: > 20 µM | inhibition at 0.000282 µM [1, 3]: 11% | inhibition(%) [1, 3]: 17.14% and 20.16% and 15.89% | inhibition(%) ([1]; IRE1a, IA34 0.000847 μM, Supplementary Fig. 3b, replicate values): 11.75% and 10.72% and 4.25% and 16.96% | inhibition(%) ([1]; IRE1a, IA34 0.00254 μM, Supplementary Fig. 3b, replicate values): 11.91% and 15.33% and 6.07% and 5.16% | inhibition(%) ([1]; IRE1a, IA34 0.007621 μM, Supplementary Fig. 3b, replicate values): 4.65% and -4.78% and -13.00% and -9.42% | inhibition(%) ([1]; IRE1a, IA34 0.068587 μM, Supplementary Fig. 3b, replicate values): 0.30% and -2.50% and 3.18% and 1.26% | inhibition(%) ([1]; IRE1a, IA34 0.205761 μM, Supplementary Fig. 3b, replicate values): 4.13% and 5.59% and 2.33% and -2.10% | inhibition(%) ([1]; IRE1a, IA34 0.617284 μM, Supplementary Fig. 3b, replicate values): 17.19% and 19.37% and 7.03% and 9.32% | inhibition at 1.85185 µM [1, 4]: 10.8% | inhibition(%) [1, 4]: 18.23% and 17.28% and 17.87% | inhibition(%) ([1]; IRE1a, IA34 5.55556 μM, Supplementary Fig. 3b, replicate values): 27.30% and 30.30% and 1.63% and 11.62% | inhibition(%) ([1]; IRE1a, IA34 16.6667 μM, Supplementary Fig. 3b, replicate values): 11.08% and 14.65% and 30.15% and 29.94% | inhibition(%) ([1]; IRE1a, IA34 50 μM, Supplementary Fig. 3b, replicate values): -1.98% and 7.19% and 5.53% and 17.33% | p-IRE1a ∆Tm(°C) (p-IRE1α; compound 6.25 μM): 0.04 °C and -0.01 °C | p-IRE1a ∆Tm(°C) (p-IRE1α; compound 12.5 μM): 0 °C and -0.08 °C | p-IRE1a ∆Tm(°C) (p-IRE1α; compound 25 μM): 0.02 °C and 0.03 °C | p-IRE1a ∆Tm(°C) (p-IRE1α; compound 50 μM): 0.03 °C and 0.12 °C | binding to IRE1α in ITC (dephosphorylated IRE1α): no binding signal
SMILES: COc1ccc2c(c1)c(CCC(=O)O)c(C)n2C(=O)c1ccc2ccccc2c1 [IA34]
inhibition(%) ([1]; IRE1a, IA34 0.022862 μM, Supplementary Fig. 3b, replicate values): -15.56% and -32.65% and -11.50% and -23.95%

effect on IRE1α RNase activity in the FRET assay [1]: did not show any detectable activity | IC50 [1, 2]: > 50 µM | effect on IRE1α RNase activity in the FRET assay ([1]; listed as IADP1): did not inhibit the RNase activity
SMILES: CCOC(=O)CCc1c(C)n(C(=O)c2ccccc2)c2ccc(Br)cc12 [IAPD1]

IC50 [1, 2]: 0.052 µM and 0.05 µM | IC50 [1, 6]: 0.0617 µM and 0.0346 µM and 0.0582 µM | p-IRE1a ∆Tm(°C) (p-IRE1α; compound 3.125 μM): 0.72 °C and 0.27 °C (2×) and 0.32 °C | Kd (dephosphorylated IRE1α; [7]): 1.82 µM
SMILES: Cc1c(CCC(=O)O)c2cc(Cl)ccc2n1C(=O)c1ccccc1 [IA141]
p-IRE1a ∆Tm(°C) (p-IRE1α; compound 1.563 μM): 0.12 °C and -0.00583 °C and 0.32 °C and -0.0158 °C | p-IRE1a ∆Tm(°C) (p-IRE1α; compound 6.25 μM): 0.99 °C and 0.72 °C and 0.76 °C and 0.85 °C | p-IRE1a ∆Tm(°C) (p-IRE1α; compound 12.5 μM): 1.57 °C and 1.31 °C and 1.36 °C and 1.19 °C | p-IRE1a ∆Tm(°C) (p-IRE1α; compound 25 μM): 2.22 °C and 2.10 °C and 1.74 °C and 2.25 °C | p-IRE1a ∆Tm(°C) (p-IRE1α; compound 50 μM): 2.87 °C and 2.43 °C and 2.53 °C and 2.76 °C | p-IRE1a ∆Tm(°C) (p-IRE1α; compound 100 μM): 3.32 °C and 3.36 °C and 3.61 °C and 3.33 °C
